US6610846B1, “Heteroaromatic glucokinase activators” (Hoffman-La Roche Inc., priority 1999, dated 2003)

What was measured:
C57BL/6J mice = assay: Glucokinase activator in vivo screen (blood glucose after oral dosing); conditions: administered orally, 50 mg/kg, C57BL/6J mice fasted two hours; decrease in blood glucose compared to vehicle over six hours (Example B)
Experimental: Glucokinase Activator In Vivo Screen Protocol
C57BL/6J mice are orally dosed via gavage with Glucokinase (GK) activator at 50 mg/kg body weight following a two hour fasting period. Blood glucose determinations are made five times during the six hour post-dose study period. Mice (n=6) are weighed and fasted for a two hour period prior to oral treatment.

SMILES	glucokinase activator in vivo activity (C57BL/6J mice)	melting point [°C]
O=C(Nc1nccs1)C(CC1CCCC1)c1ccc(S(=O)(=O)C(F)(F)F)cc1 (stereo not drawn) [Example 11(A), 3-Cyclopentyl-N-thiazol-2-yl-2-(4-trifluoromethanesulfonyl-phenyl)-propionamide]	excellent glucokinase activator in vivo activity	189 to 191
O=C(Nc1ccccn1)C(CC1CCCC1)c1ccc(S(=O)(=O)C(F)(F)F)cc1 (stereo not drawn) [Example 43(A), 3-Cyclopentyl-N-pyridin-2-yl-2-(4-trifluoromethanesulfonyl-phenyl)-propionamide]	excellent glucokinase activator in vivo activity	151 to 153
CS(=O)(=O)c1ccc(C(CC2CCCC2)C(=O)Nc2ccccn2)cc1[N+](=O)[O-] (stereo not drawn) [Example 44, 3-Cyclopentyl-2-(4-methanesulfonyl-3-nitrophenyl)-N-pyridin-2-yl-propionamide]	excellent glucokinase activator in vivo activity	92 to 95
O=C(Nc1ccccn1)C(CC1CCCC1)c1ccc(Cl)c([N+](=O)[O-])c1 (stereo not drawn) [Example 65, 2-(4-Chloro-3-nitro-phenyl)-3-cyclopentyl-N-pyridin-2-yl-propionamide]	excellent glucokinase activator in vivo activity	48 to 52
O=C(Nc1ccccn1)C(CC1CCCC1)c1ccc(C(F)(F)F)c(F)c1 (stereo not drawn) [Example 71, 3-Cyclopentyl-2-(3-fluoro-4-trifluoromethyl-phenyl)-N-pyridin-2-yl-propionamide]	excellent glucokinase activator in vivo activity	40 to 44
CS(=O)(=O)c1ccc(C(CC2CCCC2)C(=O)Nc2nccs2)cc1Br (stereo not drawn) [Example 72, 2-(3-Bromo-4-methanesulfonyl-phenyl)-3-cyclopentyl-N-thiazol-2-yl-propionamide]	excellent glucokinase activator in vivo activity	106 to 107
CS(=O)(=O)c1ccc(C(CC2CCCC2)C(=O)Nc2ccccn2)cc1Br (stereo not drawn) [Example 73, 2-(3-Bromo-4-methanesulfonyl-phenyl)-3-cyclopentyl-N-pyridin-2-yl-propionamide]	excellent glucokinase activator in vivo activity	99 to 101
CS(=O)(=O)c1ccc(C(CC2CCCC2)C(=O)Nc2nccs2)cc1C#N (stereo not drawn) [Example 75, 2-(3-Cyano-4-methanesulfonyl-phenyl)-3-cyclopentyl-N-thiazol-2-yl-propionamide]	excellent glucokinase activator in vivo activity	145 to 148
CS(=O)(=O)c1ccc(C(CC2CCCC2)C(=O)Nc2ccccn2)cc1C#N (stereo not drawn) [Example 76, 2-(3-Cyano-4-methanesulfonyl-phenyl)-3-cyclopentyl-N-pyridin-2-yl-propionamide]	excellent glucokinase activator in vivo activity	87 to 90
CCS(=O)(=O)c1ccc(C(CC2CCCC2)C(=O)Nc2nccs2)cc1 (stereo not drawn) [Example 77, 3-Cyclopentyl-2-(4-ethanesulfonyl-phenyl)-N-thiazol-2-yl-propionamide]	excellent glucokinase activator in vivo activity	178 to 179
CS(=O)(=O)c1ccc(C(CC2CCCC2)C(=O)Nc2nccs2)cc1C(F)(F)F (stereo not drawn) [Example 89(A), 3-Cyclopentyl-2-(4-methanesulfonyl-3-trifluoromethyl-phenyl)-N-thiazol-2-yl-propionamide]	excellent glucokinase activator in vivo activity	95 to 100
CS(=O)(=O)c1ccc([C@@H](CC2CCCC2)C(=O)Nc2ccc(Br)cn2)cc1Cl [Example 99, N-(5-Bromo-pyridin-2-yl)-2(R)-(3-chloro-4-methanesulfonyl-phenyl)-3-cyclopentyl-propionamide]	excellent glucokinase activator in vivo activity	
O=C(Nc1ccc(CO)cn1)[C@H](CC1CCCC1)c1ccc(Cl)c(Cl)c1 [Example 106, 3-Cyclopentyl-2(R)-(3,4-dichloro-phenyl)-N-(5-hydroxymethyl-pyridin-2-yl)propionamide]	excellent glucokinase activator in vivo activity	
O=C(Nc1nccs1)C(CC1CCCC1)c1ccc(OC(F)(F)F)cc1 (stereo not drawn) [Example 112, 3-Cyclopentyl-N-thiazol-2-yl-2-(4-trifluoromethoxy-phenyl)-propionamide]	excellent glucokinase activator in vivo activity	168 to 170
COCS(=O)(=O)c1ccc(C(CC2CCCC2)C(=O)Nc2nccs2)cc1 (stereo not drawn) [Example 125, 3-Cyclopentyl-2-(4-methoxymethanesulfonyl-phenyl)-N-thiazol-2-yl-propionamide]	excellent glucokinase activator in vivo activity	157 to 160
CS(=O)(=O)c1ccc([C@@H](CC2CCCC2)C(=O)Nc2ncc(Br)s2)cc1 [Example 133, N-(5-Bromo-thiazol-2-yl)-3-cyclopentyl-2(R)-(4-methanesulfonyl-phenyl)-propionamide]	excellent glucokinase activator in vivo activity	
Cc1csc(NC(=O)[C@H](CC2CCCC2)c2ccc(S(C)(=O)=O)c(Cl)c2)n1 [Example 139, 2(R)-(3-Chloro-4-methanesulfonyl-phenyl)-3-cyclopentyl-N-(4-methyl-thiazol-2-yl)-propionamide]	excellent glucokinase activator in vivo activity	
Cc1ccc(NC(=O)[C@H](CC2CCCC2)c2ccc(S(C)(=O)=O)c(Cl)c2)nc1 [Example 140, 2(R)-(3-Chloro-4-methanesulfonyl-phenyl)-3-cyclopentyl-N-(5-methyl-pyridin-2-yl)-propionamide]	excellent glucokinase activator in vivo activity	
CS(=O)(=O)c1ccc(C(CC2CCCC2)C(=O)Nc2ccncn2)cc1Cl (stereo not drawn) [Example 141, 2-(3-Chloro-4-methanesulfonyl-phenyl)-3-cyclopentyl-N-pyrimidin-4-yl-propionamide]	excellent glucokinase activator in vivo activity	
CS(=O)(=O)c1ccc([C@@H](CC2CCCC2)C(=O)Nc2ccncn2)cc1Cl [Example 142, 2(R)-(3-Chloro-4-methanesulfonyl-phenyl)-3-cyclopentyl-N-pyrimidin-4-yl-propionamide]	excellent glucokinase activator in vivo activity	
Cc1nccc(NC(=O)C(CC2CCCC2)c2ccc(S(C)(=O)=O)c(Cl)c2)n1 (stereo not drawn) [Example 143, 2-(3-Chloro-4-methanesulfonyl-phenyl)-3-cyclopentyl-N-(2-methyl-pyrimidin-4-yl)-propionamide]	excellent glucokinase activator in vivo activity	
Cc1nccc(NC(=O)[C@H](CC2CCCC2)c2ccc(S(C)(=O)=O)c(Cl)c2)n1 [Example 144, 2(R)-(3-Chloro-4-methanesulfonyl-phenyl)-3-cyclopentyl-N-(2-methyl-pyrimidin-4-yl)-propionamide]	excellent glucokinase activator in vivo activity	
Cc1nccc(NC(=O)C(CC2CCCC2)c2ccc(S(C)(=O)=O)c(Br)c2)n1 (stereo not drawn) [Example 148(B)(a), 2-(3-Bromo-4-methanesulfonyl-phenyl)-3-cyclopentyl-N-(2-methyl-pyrimidin-4-yl)-propionamide]	excellent glucokinase activator in vivo activity	
CS(=O)(=O)c1ccc(C(CC2CCCC2)C(=O)Nc2cnccn2)cc1Br (stereo not drawn) [Example 149, 2-(3-Bromo-4-methanesulfonyl-phenyl)-3-cyclopentyl-N-pyrazin-2-yl-propionamide]	excellent glucokinase activator in vivo activity	
CS(=O)(=O)c1ccc(C(CC2CCCC2)C(=O)Nc2ccncn2)cc1C(F)(F)F (stereo not drawn) [Example 155(B)(a), 3-Cyclopentyl-2-(4-methanesulfonyl-3-trifluoromethyl-phenyl)-N-pyrimidin-4-yl-propionamide]	excellent glucokinase activator in vivo activity	
CS(=O)(=O)c1ccc(C(CC2CCCC2)C(=O)Nc2cnccn2)cc1C(F)(F)F (stereo not drawn) [Example 155(B)(b), 3-Cyclopentyl-2-(4-methanesulfonyl-3-trifluoromethyl-phenyl)-N-pyrazin-2-yl-propionamide]	excellent glucokinase activator in vivo activity	
Cc1nccc(NC(=O)C(CC2CCCC2)c2ccc(S(C)(=O)=O)c(C(F)(F)F)c2)n1 (stereo not drawn) [Example 155(B)(c), 3-Cyclopentyl-2-(4-methanesulfonyl-3-trifluoromethyl-phenyl)-N-(2-methyl-pyrimidin-4-yl)-propionamide]	excellent glucokinase activator in vivo activity	
CS(=O)(=O)c1ccc([C@@H](CC2CCCC2)C(=O)Nc2cnccn2)cc1C(F)(F)F [Example 157(B)(a), 3-Cyclopentyl-2(R)-(4-methanesulfonyl-3-trifluoromethyl-phenyl)-N-pyrazin-2-yl-propionamide]	excellent glucokinase activator in vivo activity	
Cc1nccc(NC(=O)[C@H](CC2CCCC2)c2ccc(S(C)(=O)=O)c(C(F)(F)F)c2)n1 [Example 157(B)(b), 3-Cyclopentyl-2(R)-(4-methanesulfonyl-3-trifluoromethyl-phenyl)-N-(2-methyl-pyrimidin-4-yl)-propionamide]	excellent glucokinase activator in vivo activity	
